Laboratory results from patent US11834450B2, “Compounds having ((3-nitrophenyl)sulfonyl)acetamide as BCL-2 inhibitors” (Eil Therapeutics, Inc., priority 2021, dated 2023).
Like-named read-outs stand apart in the source and are kept apart here.

How the values were obtained:
BCL-XL = molecular target: T1, BCL-XL (Homo sapiens, UniProt Q07817); test: BCL-XL TR-FRET Assay (primary PPI inhibition); format: binding; settings: 60 min incubation; read-out: BCLxL (IC50 code, BCL-XL TR-FRET)
T1 construct: purchased BPS Bioscience #50223
Method: BCL-XL TR-FRET Assay (BPS Bioscience, #50223) Assay Condition: The following assay concentrations and times were used: 10.5 ng BCL-XL, 5 ul of 1:100 anti-His Tb-labeled donor, 5 ul of 1:100 Dye-labeled acceptor, 5 ul of 1:80 BCL-XL Peptide Ligand, and 2 ul of test compound, with 60 min incubation time. The results of the assay were read using a Clariostar (BMG Labtech) plate reader with the following parameters: TR FRET, 340 ex/620 and 665 em; 60 μsec Delay; and 500 μsec integration.

[1] = test system: caspase-3 and -7 activities in RS4-11 cells; test: Cas-3/7 activation (Caspase-Glo 3/7) in RS4-11 cells; format: cell-based; settings: Homo sapiens, 3.5 h at 37° C. and 30 min at r.t., read-out: Cas-3/7 (EC50 code)
Method: Assay Principle: The Caspase-Glo 3/7 Assay is homogeneous, luminescent assay that measures caspase-3 and -7 activities. The assay provides a luminogenic caspase-3/7 substrate, which contains the tetrapeptide sequence DEVD, in a reagent optimized for caspase activity.
Assay Procedure: Incubate RS4-11 cells with varying concentrations of test compounds for 3.5 h in a humidified incubator at 37° C. and 5% CO2 and 30 min at r.t. Add 15 μl Caspase-Glo reagent to each well and incubate the plate for 30 min at r.t. Read on ClarioStar Plus instrument.
Materials: Promega Caspase-Glo (Promega, #8212); Frozen RS4-11 cells; 384-well white plate (Corning, #3570).
Instrumentation: ClarioStar Plus; Biomek FX for liquid handling (Beckman Coulter).

MOLT-4 cells = test: Cell viability assay MOLT-4 (CellTiter-Glo); format: cell-based; settings: Homo sapiens, read-out: MOLT-4 (CC50 code)
Method: (§1) Assay Condition: Used culture medium for HEK293-DMEM (PanEco, Cat #C420), for the rest of the cell lines—culture medium RPMI-1640 (PanEco, Cat #C363).
(§2) Assay Procedure: Compounds were prepared as 200× stocks with serial dilution in 100% DMSO with a final concentration of 1×. Dispersed 40 μl in 384-well plates at a concentration of 2000 cells per well for HEK293 and at a concentration of 4000 cells per well for the rest of the cell lines using a robotic station Biomek (Beckman). Before adding compounds, the cells were incubated at 37° C. (HEK293 were incubated for a day before adding compounds).
(§3) A dilution plate was prepared by pouring 78 μl of the appropriate culture medium using a robotic station Biomek (Beckman). Sequentially, using a robotic station, 2 μl of substances were taken and added to 78 μl of culture medium (dilution of compounds 40×). Took from there 10 μl and added to the plates to the cells (dilution of compounds 5×). The plates were incubated for 3 days at a temperature 37° C. After 3 days, 10 μl of CellTiter-Glo (Promega) was added to the cells and the luminescence was measured.

[2] = Cell viability assay HEK293 (CellTiter-Glo); format: cell-based; settings: human, HEK293 cells, read-out: HEK293 (CC50 code)
Method: as §1, §2, §3

RS4-11 cells = test: Cell viability assay RS4-11 (CellTiter-Glo); format: cell-based; settings: Homo sapiens, read-out: RS4-11 (CC50 code)
Method: as §1, §2, §3

BCL-2 = molecular target: T2, BCL-2 (Homo sapiens, UniProt P10415); test: BCL-2 TR-FRET Assay (primary PPI inhibition); format: binding; settings: 60 min incubation; read-out: BCL2 (IC50 code, BCL-2 TR-FRET)
T2 construct: purchased BPS Bioscience #50222

[3] = 72 h, MOLT-4 cells, 3 days, CellTiter-Glo
[4] = 72 h, RS4-11 cells, 3 days, CellTiter-Glo

T1 sequence (Q07817 whole entry): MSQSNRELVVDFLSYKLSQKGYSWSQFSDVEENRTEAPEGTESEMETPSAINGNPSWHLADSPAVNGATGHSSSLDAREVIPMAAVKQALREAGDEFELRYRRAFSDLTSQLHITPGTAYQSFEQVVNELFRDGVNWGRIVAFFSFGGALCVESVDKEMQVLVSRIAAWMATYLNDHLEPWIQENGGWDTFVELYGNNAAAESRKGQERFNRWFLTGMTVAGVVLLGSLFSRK
T2 sequence (P10415 whole entry): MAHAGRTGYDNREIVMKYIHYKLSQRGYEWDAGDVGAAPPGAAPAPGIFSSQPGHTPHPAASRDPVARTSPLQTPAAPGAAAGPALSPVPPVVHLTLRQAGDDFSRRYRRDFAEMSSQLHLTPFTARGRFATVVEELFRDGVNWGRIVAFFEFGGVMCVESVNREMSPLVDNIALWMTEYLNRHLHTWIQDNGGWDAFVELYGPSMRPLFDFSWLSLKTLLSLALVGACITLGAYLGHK

| Structure (SMILES) | IC50 (BCL-XL) [nM] | EC50 [1] [nM] | CC50 (MOLT-4 cells; [3]) [nM] | CC50 at 3 days [2] [nM] | CC50 (RS4-11 cells; [4]) [nM] | IC50 (BCL-2) [nM] | CC50 (MOLT-4 cells; MOLT-4, 72 h) [nM] | CC50 (RS4-11 cells; RS4-11, 72 h) [nM] |
| --- | --- | --- | --- | --- | --- | --- | --- | --- |
| O=C(NS(=O)(=O)c1ccc(NCC2CCOCC2)c([N+](=O)[O-])c1)c1ccc(N2CCC(CN3C(=O)C4(CCCC4)C3c3ccccc3)CC2)cc1Oc1cnc2[nH]ccc2c1 (stereo not drawn) [Compound 2, N-[3-nitro-4-(tetrahydropyran-4-ylmethylamino)phenyl]sulfonyl-4-[4-[(3-oxo-1-phenyl-2-azaspiro[3.4]octan-2-yl)methyl]-1-piperidyl]-2-(1H-pyrrolo[2,3-b]pyridin-5-yloxy)benzamide] | > 4000 | > 250 | > 10000 | > 25000 | > 200 | > 50 |  |  |
| Cc1cc(Cl)ccc1C1N(CC2CCN(c3ccc(C(=O)NS(=O)(=O)c4ccc(NCC5CCOCC5)c([N+](=O)[O-])c4)c(Oc4cnc5[nH]ccc5c4)c3)CC2)C(=O)C12CCCC2 (stereo not drawn) [Compound 3, 4-[4-[[1-(4-chloro-2-methyl-phenyl)-3-oxo-2-azaspiro[3.4]octan-2-yl]methyl]-1-piperidyl]-N-[3-nitro-4-(tetrahydropyran-4-ylmethylamino)phenyl]sulfonyl-2-(1H-pyrrolo[2,3-b]pyridin-5-yloxy)benzamide] | 2000 to 4000 | > 250 | 2000 to 10000 | > 25000 | > 200 | 10 to 50 |  |  |
| O=C(NS(=O)(=O)c1ccc(NCC2CCOCC2)c([N+](=O)[O-])c1)c1ccc(N2CCN(CC(c3ccccc3)c3ccccc3)CC2)cc1Oc1cnc2[nH]ccc2c1 [Compound 4, 4-[4-(2,2-diphenylethyl)piperazin-1-yl]-N-[3-nitro-4-(tetrahydropyran-4-ylmethylamino)phenyl]sulfonyl-2-(1H-pyrrolo[2,3-b]pyridin-5-yloxy)benzamide] | > 4000 | > 250 | 2000 to 10000 | > 25000 | > 200 | > 50 |  |  |
| O=C(NS(=O)(=O)c1ccc(NCC2CCOCC2)c([N+](=O)[O-])c1)c1ccc(N2CCN(C[C@@H]3Cc4ccccc4CN3C(=O)C3CC3)CC2)cc1Oc1cnc2[nH]ccc2c1 [Compound 5, 4-[4-[[(3S)-2-(cyclopropanecarbonyl)-3,4-dihydro-1H-isoquinolin-3-yl]methyl]piperazin-1-yl]-N-[3-nitro-4-(tetrahydropyran-4-ylmethylamino)phenyl]sulfonyl-2-(1H-pyrrolo[2,3-b]pyridin-5-yloxy)benzamide] | ≤ 2000 | > 250 | 2000 to 10000 | > 25000 | > 200 | 10 to 50 |  |  |
| O=C(NS(=O)(=O)c1ccc(NCC2CCOCC2)c([N+](=O)[O-])c1)c1ccc(N2CCN(CC3Cc4ccccc4CN3C(=O)c3cccs3)CC2)cc1Oc1cnc2[nH]ccc2c1 (stereo not drawn) [Compound 6, N-[3-nitro-4-(tetrahydropyran-4-ylmethylamino)phenyl]sulfonyl-2-(1H-pyrrolo[2,3-b]pyridin-5-yloxy)-4-[4-[[2-(thiophene-2-carbonyl)-3,4-dihydro-1H-isoquinolin-3-yl]methyl]piperazin-1-yl]benzamide] | ≤ 2000 | > 250 | 2000 to 10000 | > 25000 | > 200 | > 50 |  |  |
| O=C(NS(=O)(=O)c1ccc(NCC2CCOCC2)c([N+](=O)[O-])c1)c1ccc(N2CCN(CC(O)(c3ccccc3)c3ccccc3)CC2)cc1Oc1cnc2[nH]ccc2c1 [Compound 7, 4-[4-(2-hydroxy-2,2-diphenyl-ethyl)piperazin-1-yl]-N-[3-nitro-4-(tetrahydropyran-4-ylmethylamino)phenyl]sulfonyl-2-(1H-pyrrolo[2,3-b]pyridin-5-yloxy)benzamide] | > 4000 | > 250 | 2000 to 10000 | > 25000 | > 200 | 10 to 50 |  |  |
| CC(C)C(=O)N1Cc2ccccc2C[C@H]1CN1CCN(c2ccc(C(=O)NS(=O)(=O)c3ccc(NCC4CCOCC4)c([N+](=O)[O-])c3)c(Oc3cnc4[nH]ccc4c3)c2)CC1 [Compound 8, 4-[4-[[2-(2-methylpropanoyl)-3,4-dihydro-1H-isoquinolin-3-yl]methyl]piperazin-1-yl]-N-[3-nitro-4-(tetrahydropyran-4-ylmethylamino)phenyl]sulfonyl-2-(1H-pyrrolo[2,3-b]pyridin-5-yloxy)benzamide] | ≤ 2000 | > 250 | 2000 to 10000 | > 25000 | > 200 | > 50 |  |  |
| O=C(NS(=O)(=O)c1ccc(NCC2CCOCC2)c([N+](=O)[O-])c1)c1ccc(N2CCC(CN3C(=O)C4(CCCC4)C3c3cncc(Cl)c3)CC2)cc1Oc1cnc2[nH]ccc2c1 (stereo not drawn) [Compound 9, 4-[4-[[1-(5-chloro-3-pyridyl)-3-oxo-2-azaspiro[3.4]octan-2-yl]methyl]-1-piperidyl]-N-[3-nitro-4-(tetrahydropyran-4-ylmethylamino)phenyl]sulfonyl-2-(1H-pyrrolo[2,3-b]pyridin-5-yloxy)benzamide] | 2000 to 4000 | > 250 |  | > 25000 |  | > 50 | 2000 to 10000 | > 200 |
| O=C(NS(=O)(=O)c1ccc(NCC2CCOCC2)c([N+](=O)[O-])c1)c1ccc(N2CCN(CC(O)(c3ccccc3)c3ccc(F)c(F)c3)CC2)cc1Oc1cnc2[nH]ccc2c1 (stereo not drawn) [Compound 11, 4-[4-[2-(3,4-difluorophenyl)-2-hydroxy-2-phenyl-ethyl]piperazin-1-yl]-N-[3-nitro-4-(tetrahydropyran-4-ylmethylamino)phenyl]sulfonyl-2-(1H-pyrrolo[2,3-b]pyridin-5-yloxy)benzamide] | > 4000 | > 250 | 2000 to 10000 | > 25000 | > 200 | > 50 |  |  |
| O=C(NS(=O)(=O)c1ccc(NCC2CCOCC2)c([N+](=O)[O-])c1)c1ccc(N2CCN(CC(c3ccccc3)c3ccc(F)c(F)c3)CC2)cc1Oc1cnc2[nH]ccc2c1 (stereo not drawn) [Compound 13, 4-[4-[2-(3,4-difluorophenyl)-2-phenyl-ethyl]piperazin-1-yl]-N-[3 nitro-4-(tetrahydropyran-4-ylmethylamino)phenyl]sulfonyl-2 (1H-pyrrolo[2,3-b]pyridin-5-yloxy)benzamide] | > 4000 | > 250 | < 2000 | ≤ 10000 | > 200 | > 50 |  |  |
| CC(C)C(=O)N1Cc2ccccc2C[C@@H]1CN1CCN(c2ccc(C(=O)NS(=O)(=O)c3ccc(NCC4CCOCC4)c([N+](=O)[O-])c3)c(Oc3cnc4[nH]ccc4c3)c2)CC1 [Compound 37, 4-[4-[[(3R)-2-(2-methylpropanoyl)-3,4-dihydro-1H-isoquinolin-3-yl]methyl]piperazin-1-yl]-N-[3-nitro-4-(tetrahydropyran-4-ylmethylamino)phenyl]sulfonyl-2-(1H-pyrrolo[2,3-b]pyridin-5-yloxy)benzamide] | > 4000 | > 250 |  |  |  | > 50 |  |  |
| CC1(C)Cc2ccccc2CN1CC1CCN(c2ccc(C(=O)NS(=O)(=O)c3ccc(NCC4CCOCC4)c([N+](=O)[O-])c3)c(Oc3cnc4[nH]ccc4c3)c2)CC1 [Compound 38, 4-[4-[(3,3-dimethyl-1,4-dihydroisoquinolin-2-yl)methyl]-1-piperidyl]-N-[3-nitro-4-(tetrahydropyran-4-ylmethylamino)phenyl]sulfonyl-2-(1H-pyrrolo[2,3-b]pyridin-5-yloxy)benzamide] | > 4000 | > 250 |  |  |  | > 50 |  |  |
